We go through 2 compounds from patent US20160303122A1, “TREATMENT OF HEPATITIS B VIRAL” (Southern Research Institute, priority 2015, published 2016).

Structures are written as SMILES. Where two headings read alike, the source gives them in different places.

In data set [1] the test system is HepG2 2.2.15. The data set is described as follows: Cell Titer 96 (Toxicity) in the secondary assay. It counts as cell-based. Particulars: HepG2 2.2.15 cells, unit from conc. ranges in the 1st table, read-out: CC50 - compound concentration that reduces cell viability by 50%.
In data set [2] the test system is Hepatitis B virus. Put plainly: Secondary anti-Hepatitis B virus assay, quantitative polymerase chain reaction (intracellular DNA). It counts as cell-based, Hepatitis B virus (Hepatitis B-adr). Particulars: for EC50 / EC90: Hepatitis B-adr, intracellular DNA by qPCR, vehicle DMSO, unit from conc. ranges in the 1st table; for EC50: read-out: EC50 - compound concentration that reduces viral replication by 50%; for EC90: read-out: EC90 - compound concentration that reduces viral replication by 90%; for Sl90 - CC50/EC90 / Sl50 - CC50/EC50: selectivity index. On the procedure:
(§1) Hepatitis B antiviral assays (Korba & Gerin, 1992, Antivir. Res. 19:55) are conducted using confluent cultures of 2.2.15 cells (genotype ayw; parental cell HepG2) maintained on 96-well flat-bottomed tissue culture plates (confluence in this culture system is required for active, high levels of Hepatitis B replication equivalent to that observed in chronically-infected individuals (Sells, et al., 1988, J. Virol. 62:2836; Korba and Gerin, 1992, Antivir. Res. 19:55). Cultures are treated for 7 days. Typically, 4 doses (10-fold or 3-fold steps), in triplicate are used. Hepatitis B DNA levels in the culture medium (representing Hepatitis B virion production) are assessed by quantitative blot hybridization 24 hrs. after the last treatment. Cytotoxicity is assessed by uptake of neutral red dye 24 hr. following the last treatment. Lamivudine (LMV) is used as the standard assay control, but other control compounds are also available.
EC50, EC90 and CC50 values are calculated by linear regression analysis (MS EXCEL®, QuattroPro®) using data combined from all treated cultures (Korba & Gerin, 1992, Antivir. Res. 19:55; Okuse, et al., 2005, Antivir. Res. 65:23). Standard deviations for EC50 and EC90 values are calculated from the standard errors generated by the regression analyses. EC50 and EC90 are drug concentrations at which a 2-fold, or a 10-fold depression of Hepatitis B DNA (relative to the average levels in untreated cultures), respectively, is observed. CC50 is the drug concentration at which a 2-fold lower level of neutral red dye uptake (relative to the average levels in untreated cultures) is observed. The Selectivity index (S.I.) is calculated as CC50/EC90 since at least a 3-fold depression of Hepatitis B DNA levels is typically required to achieve statistical significance in this assay system (Korba & Gerin, 1992, Antivir. Res. 19:55).
Confluent cultures of HepG2 2.2.15 cells maintained on 48-well flat-bottomed tissue culture plates are treated as described for the primary assay. Hepatitis B virion DNA levels in the culture medium and cytotoxicity are assessed as described for the primary assay. […] Res. 19:55). EC50, EC90, and S.I. values are calculated for both virion DNA and intracellular Hepatitis B DNA replication intermediates.
Background: In qPCR the cycle at which signal appears reflects the starting amount.

Data set [3] can be described thus: Cell Titer 96 (Toxicity) in the secondary assay. It counts as cell-based. Conditions: human, HepG2 2.2.15 cells (confluent cultures), unit from conc. ranges in the 1st table, read-out: CC50 - compound concentration that reduces cell viability by 50%.
Data set [4] deals with Hepatitis B virus. The data set is described as follows: Primary anti-Hepatitis B virus assay (primary screen). The format is cell-based. Particulars: data confirmed in the secondary assay. The protocol:
as §1
EC50, EC90 and CC50 values are calculated by linear regression analysis (MS EXCEL®, QuattroPro®) using data combined from all treated cultures (Korba & Gerin, 1992, Antivir. Res. 19:55; Okuse, et al., 2005, Antivir. Res. 65:23). Standard deviations for EC50 and EC90 values are calculated from the standard errors generated by the regression analyses. […]

Setting [5] is: HepG2 2.2.15 cells, listed as 3TC (1).
The mark [6] stands for this setting: HepG2 2.2.15 cells, listed as 3TC (2).
Setting [7] is: HepG2 2.2.15 cells, listed as 3TC (3).
Where [8] appears, read: Hepatitis B virus, HepG2 2.2.15, HepG2 2.2.15 cells.

For `Nc1ccn([C@@H]2CS[C@H](CO)O2)c(=O)n1` [Compound 3TC, 2′,3′-dideoxy-3′-thiacytidine], the CC50 in data set [1] (listed as 3TC (1)) is > 500 nM; in data set [1] (listed as 3TC (2)), > 1000 nM; in data set [1] (listed as 3TC (3)) it was > 2000 nM. Also, the EC50 in data set [2] (setting [5]) is 40 nM; in data set [2] (setting [7]) it was 50 nM; in data set [2] (setting [8]), 60 nM. Moreover, the values for the EC90 in data set [2] (setting [5]), in data set [2] (setting [6]) and in data set [2] (setting [7]) were > 500 nM, > 1000 nM and > 2000 nM, respectively. Moreover, the “Sl90 - CC50/EC90” value in data set [2] (HepG2 2.2.15 cells) turned out to be 1. In addition, the “Sl50 - CC50/EC50” value in data set [2] (setting [5]) is >12; in data set [2] (setting [6]), >15; in data set [2] (setting [7]) it was >43.

For `CCC[C@H](Nc1nc(-c2ccc(NC(=O)NCC)c(OC)c2)ncc1C)c1cccnc1` (stereo in doubt) [Compound 1A, 1-ethyl-3-(2-methoxy-4-(5-methyl-4-((1-(pyridine-3-yl)butyl)amino)pyrimidin-2-yl)phenyl)urea], in data set [3], the CC50 at 7 days stood at 25400 nM. The “activity in the primary screen” value in data set [4] is on record as “active”. Also, in data set [2] (HepG2 2.2.15 cells), the “Sl50 - CC50/EC50” value is >80 and the “Sl90 - CC50/EC90” value stood at 1. Further, in data set [2] (setting [8]), the EC50 is < 320 nM and the EC90 came out at 710 nM.
